Experimental findings from patent US8895032B2, “Dendritic nano-antioxidants” (Central Michigan University, priority 2009, dated 2014) are described below.

For data set [1], the system named is Chinese hamster ovary (CHO-K1) cells. Kind of data set: Cell toxicity, MTT. Type of data set: cell-based. Particulars: 3.1-50 μM, over 5 days. As to the method:
Data on cell toxicity of compound 4 and compound 5 were obtained with Chinese hamster ovary (CHO) cells using 3-(4,5-di-methylthizol-2-yl)-2,5 diphenyltetrazolium bromide (MTT). Chinese Hamster Ovary (CHO-K1) cells were cultured in F-12K medium supplemented with 10% fetal bovine serum. The cells (3×10^5/ml) were seeded in 100 μL volumes in 96 well culture plates and incubated with the solvent control (DMSO, 0.3%), compound 4 or compound 5 at 3.1, 6.2, 12.5, 25, or 50 μM for 1, 3, or 5 days. Two hours prior to experimental termination, 20 μL of a 5 mg/mL MTT solution in 0.01 M PBS was added to each well. Plates were centrifuged at 450×g for 10 min and supernatant was removed. The resultant formazan crystals were dissolved in 100 μL DMSO and mixed. Absorbance was measured using a Biolog microplate reader (Biotek Instruments) at dual wavelengths, 590 and 650 nm. Percent control response was calculated as follows: (absorbance of treatment/absorbance of control)×100. All experiments were performed in triplicate and repeated. The data were analyzed using Systat 12 for windows. Multiple groups were compared using a one-way analysis of variance (ANOVA) and a Tukey test for mean separation. A p value<0.05 was considered statistically significant.

Data set [2] relates to plasmid DNA pBR 322. The data set is described as follows: Protection of plasmid DNA from AAPH damage (agarose electrophoresis). It counts as biochemical. Particulars: 10 mM AAPH, 37° C., 4 h; for DNA protection: 5 μM antioxidant. As to the method: The effectiveness of the three compounds to protect DNA from AAPH damage was also determined. The plasmid DNA pBR 322 was incubated with AAPH (final concentration 10 mM) at 37° C. for 4 h with or without antioxidants (final concentrations, 0.35-45 μM), after which the samples were subjected to agarose electrophoresis (Sakihama, Y., et al. Toxicology 2002, 177, 67, incorporated herein by reference in its entirety). […] In the absence of AAPH, pBR 322 was mostly in its supercoiled (S) form (small amount of open circular, O, form was also visible, lane 1 FIG. 25). After reaction with AAPH, the DNA was transformed almost entirely into its open circular form (lane 2, FIG. 25). […] No protection was obtained for both compound 1 and quercetin below 5 μM (lanes 7-10, FIG. 25). […] Compound 3 as well as Trolox were ineffective at all concentrations used in the experiment (0.35-45 μM).
Protection of DNA from free radical damage by the antioxidant dendrimers (compounds 4, 5, and 1) was also evaluated. Plasmid DNA (pBR 322) samples, were incubated with AAPH (final concentration 10 mM) at 37° C. for 4 h with antioxidants (final concentrations, 0.35-45 μM) and subjected to agarose electrophoresis. […] The native DNA was mostly in its supercoiled (S) form (small amount of open circular, O, form was also visible, lane 1, FIG. 31). In the presence of AAPH, the DNA was transformed almost entirely into its O form (lane 2, FIG. 31). […] Negligible DNA protection was afforded by all three dendrimers at ≦2.5 μM (lanes 7-10, FIG. 31). Under similar conditions, Trolox as well as the starting materials for dendrimer synthesis were ineffective at all concentrations.

The nature of data set [3]: DPPH radical assay. Particulars: read-out: DPPH IC50 at 120 min; Example 15. As to the method: The DPPH assay was one of three electron transfer (ET) assays used to determine the antioxidant potential of compound 1 (described in Example 6) in comparison to its monomeric counterpart (syringaldehyde) as well as popular antioxidants. In an ET assay, an antioxidant donates electron(s) to a molecular probe, thus reducing it. From the assay, thermodynamic conversion of antioxidant to antioxidant radical (oxidation) is measured during a fixed time period.
The reduction of DPPH radical was determined for ascorbic acid, Trolox, syringaldehyde, and the compound 1 described in Example 6 as previously reported (Brand-Williams, et al. Lebensm.-Wiss U.-Technol. 1995, 28, 25-30, incorporated herein by reference in its entirety). In the DPPH assay, DPPH• radical was reduced by the antioxidant in methanol (Brand-Williams, et al. Lebensm.-Wiss U.-Technol. 1995, 28, 25-30, incorporated herein by reference in its entirety). […] The DPPH reagent was made in methanol. Antioxidant sample (10 μL) was added to 1.0 mL of reagent and the absorbance was monitored at 515 nm until a plateau was reached. Antioxidant concentrations were 50 μM syringaldehyde, 12.5 μM Trolox and ascorbic acid, and 5 μM compound 1. All samples were made in methanol and run in triplicates at room temperature.
The DPPH• scavenging capacity of each antioxidant was evaluated from the plot of the percentage DPPH• remaining when the kinetics reached a steady state as a function of the molar ratios of antioxidant to DPPH•. […] Using the curve, EC50 (the amount of antioxidant necessary to decrease the initial DPPH• concentration by 50%), antiradical power (1/EC50, ability to reduce the DPPH•), reaction stoichiometry (EC50×2, the concentration of antioxidant required to reduce 100% of DPPH• radical), and the number of reduced DPPH• per antioxidant molecule (1/stoichiometry) for each antioxidant were calculated as previously described (Brand-Williams, et al. Lebensm.-Wiss U.-Technol. 1995, 28, 25-30, incorporated herein by reference in its entirety) and are depicted in Table 1.
Antioxidant capacity of the compounds was assessed by the DPPH assay (Brand-Williams, et al. Lebensm. Wiss. Technol. 1995, 28, 25, incorporated herein by reference in its entirety). […] In FIG. 22, control with methanol is (X, dashed); compound 1 is (□), compound 2 is (•), compound 3 is (◯), and Trolox (Δ). All antioxidant concentrations were 5 μM.
The free-radical scavenging ability of the antioxidants was evaluated by the DPPH assay, as described above in Example 7.
A general note: Loss of DPPH colour is used to gauge radical scavenging.

Data set [4] concerns Human LDL. The data set is described as follows: Protection of LDL from AAPH oxidation (agarose gel electrophoresis). Type of data set: biochemical. The following applies: 21 h, 37° C. An excerpt:
The antioxidant activity of compounds 1, 2, and 3 towards biomolecules was examined by studying their ability to protect LDL, fatty acid, and DNA from free radicals. For LDL, AAPH was used to induce free radical damage. AAPH was used instead of copper (Cu^2) ion for LDL oxidation so that the free radical scavenging activity of the antioxidants could be measured without any pro-oxidant interference caused by metal ions (Salah, N. et al. Arch. Biochem. Biophys. 1995, 322, 339, incorporated herein by reference in its entirety). All solutions were made in ultra-pure water.
Protection of LDL from AAPH free radicals by the antioxidant decreased the anodic shift in a dose-dependent manner (FIG. 23). […] The increased hydrophobicity of compound 3 may be partly responsible for its improved LDL protection over compound 2.
The antioxidant activity of the antioxidants towards biomolecules was examined by studying their ability to protect LDL, lysozyme, and DNA from free radicals. For LDL, AAPH was used to induce free radical damage. AAPH was used instead of Cu^2+ for LDL oxidation so that the free radical scavenging activity of the antioxidants could be measured without any pro-oxidant interference caused by metal ions. The oxidation of human low-density lipoprotein was used as a model for evaluating the ability of the G1 dendrimers as chain-breaking antioxidants for lipid. Oxidation of LDL leads to changes in both the lipid and the protein moieties of the lipoprotein particle. Lipid peroxidation in LDL has been evaluated by a variety of methods. Due to the complexity of events that occur in lipoprotein oxidation, the electrophoretic migration pattern of oxidized LDL is one of the best methods to evaluate the extent of lipoprotein oxidation. LDL was incubated with 20 mM AAPH and increasing concentrations of the G1 dendrimers (0-37 μM in PBS) for 21 h at 37° C. The mixture was then subjected to agarose gel electrophoresis using the Ciba Corning Clinical Electrophoresis System. The agarose gel was stained with Fat Red 7B. In FIG. 30A (top), lane 1 is native LDL, and lanes 2-8 are AAPH-oxidized LDL with 0, 37, 18.5, 9, 4.5, 2 and 1 μM compound 4, respectively. In FIG. 30B (bottom), lane 1 is native LDL, and lanes 2-8 are AAPH-oxidized LDL with 0, 37, 18.5, 9, 4.5, 2 and 1 μM quercetin or Trolox, respectively.

Regarding `COc1cc(CN(CCN(CCN(Cc2ccc(O)c(OC)c2)Cc2ccc(O)c(OC)c2)CCN(Cc2ccc(O)c(OC)c2)Cc2ccc(O)c(OC)c2)Cc2ccc(O)c(OC)c2)ccc1O` [Compound 5], the “CHO cell viability (MTT)” value in data set [1] was “did not show any reduction in cell viability”. In data set [2], the DNA protection entry was “Some protection”. Besides, the concentration for half-maximal inhibition (IC50) – broadly, the concentration at which inhibition is half-maximal – in data set [3] was 2 µM. The “only concentration effective in protecting LDL” value in data set [4] (20 mM AAPH) worked out at 30 µM.

As for `COc1cc(CN(CCN(CCN(Cc2cc(OC)c(O)c(OC)c2)Cc2cc(OC)c(O)c(OC)c2)CCN(Cc2cc(OC)c(O)c(OC)c2)Cc2cc(OC)c(O)c(OC)c2)Cc2cc(OC)c(O)c(OC)c2)cc(OC)c1O` [Compound 4], the “CHO cell viability (MTT)” value in data set [1] is “did not show any reduction in cell viability”. Also, the DNA protection entry in data set [2] is listed as “Some protection”. Moreover, in data set [2] (11-45 μM antioxidant), the “DNA protection (S band intensity)” value is listed as “well protected”. Further, in data set [3], the IC50 is 2 µM. The “protection of LDL against free radical damage” value in data set [4] (15 μM and 30 μM, 20 mM AAPH) is “fully protected”. Besides, the “protection of LDL at lower concentrations” value in data set [4] (lanes 5-8, 20 mM AAPH) was “ineffective”.
